Measured values: the CheMixHub viscosity set

Experiment: xn = mol fraction of the nth substance listed

CCCN + CCCO
Settings	viscosity [mPa·s]
298.15 K, 100 kPa, x2 = 0.0523	0.3938
298.15 K, 100 kPa, x2 = 0.1008	0.4276
298.15 K, 100 kPa, x2 = 0.2001	0.5072
298.15 K, 100 kPa, x2 = 0.2985	0.6113
298.15 K, 100 kPa, x2 = 0.3979	0.7332
298.15 K, 100 kPa, x2 = 0.5037	0.864
298.15 K, 100 kPa, x2 = 0.5989	1.002
298.15 K, 100 kPa, x2 = 0.7015	1.186
298.15 K, 100 kPa, x2 = 0.7962	1.378
298.15 K, 100 kPa, x2 = 0.9032	1.671
298.15 K, 100 kPa, x2 = 0.9626	1.843
303.15 K, 101.33 kPa, x1 = 0.0903	1.559
303.15 K, 101.33 kPa, x1 = 0.1862	1.343
303.15 K, 101.33 kPa, x1 = 0.2822	1.157
303.15 K, 101.33 kPa, x1 = 0.3807	0.9888
303.15 K, 101.33 kPa, x1 = 0.4868	0.8381
303.15 K, 101.33 kPa, x1 = 0.5804	0.7151
303.15 K, 101.33 kPa, x1 = 0.6878	0.596
303.15 K, 101.33 kPa, x1 = 0.7825	0.5123
303.15 K, 101.33 kPa, x1 = 0.901	0.417
313.15 K, 101.33 kPa, x1 = 0.0903	1.255
313.15 K, 101.33 kPa, x1 = 0.1862	1.096
313.15 K, 101.33 kPa, x1 = 0.2822	0.9516
313.15 K, 101.33 kPa, x1 = 0.3807	0.8187
313.15 K, 101.33 kPa, x1 = 0.4868	0.6961
313.15 K, 101.33 kPa, x1 = 0.5804	0.6034
313.15 K, 101.33 kPa, x1 = 0.6878	0.5101
313.15 K, 101.33 kPa, x1 = 0.7825	0.4401
313.15 K, 101.33 kPa, x1 = 0.901	0.3655

CCCCOC(C)=O + CC(C)O
viscosity [mPa·s], 100 kPa
Settings	x1 = 0.081	x1 = 0.1599	x1 = 0.24	x1 = 0.35	x1 = 0.44	x1 = 0.5601	x1 = 0.65	x1 = 0.74	x1 = 0.85	x1 = 0.9397
293.15 K	1.638	1.156	0.884	0.725	0.688	0.674	0.686	0.686	0.703	0.717
298.15 K	1.439	1.038	0.812	0.684	0.652	0.648	0.652	0.652	0.665	0.673
303.15 K	1.256	0.924	0.747	0.643	0.608	0.601	0.608	0.616	0.629	0.632
308.15 K	1.119	0.847	0.687	0.592	0.56	0.557	0.564	0.564	0.582	0.584
313.15 K	0.972	0.74	0.613	0.536	0.516	0.516	0.522	0.525	0.531	0.543
318.15 K	0.862	0.658	0.538	0.482	0.469	0.474	0.481	0.487	0.496	0.502
323.15 K	0.759	0.574	0.469	0.431	0.428	0.436	0.443	0.451	0.457	0.461

[O-][Cl+3]([O-])([O-])O + CC(=O)O
viscosity [mPa·s], 101 kPa
Settings	x1 = 0.2029	x1 = 0.3254	x1 = 0.4484	x1 = 0.5117
293.15 K	0.2653	0.6193	0.4081	0.2388
308.15 K	0.1146	0.2603	0.1883	0.1226
323.15 K	–	0.1268	–	–

CCOC(=O)c1ccc(O)cc1 + CCCCCOC(C)=O
Settings	viscosity [mPa·s]
298.15 K, 101 kPa, x1 = 0.5	1.66

CC(C)C(C)O (configuration not stated) + COc1ccccc1
viscosity [mPa·s], 101.33 kPa
Settings	x2 = 0.1006	x2 = 0.2007	x2 = 0.3004	x2 = 0.4	x2 = 0.5008	x2 = 0.6009	x2 = 0.6997	x2 = 0.8003	x2 = 0.8998
303.15 K	2.405	1.858	1.476	1.223	1.067	0.981	0.937	0.919	0.913
313.15 K	1.731	1.397	1.157	0.991	0.889	0.832	0.808	0.799	0.794
323.15 K	1.273	1.066	0.925	0.83	0.771	0.736	0.718	0.707	0.699

CCCN + CCCCCO
viscosity [mPa·s], 101.33 kPa
Settings	x1 = 0.0915	x1 = 0.1847	x1 = 0.3069	x1 = 0.4139	x1 = 0.4894	x1 = 0.581	x1 = 0.7163	x1 = 0.8117	x1 = 0.9
303.15 K	2.504	2.167	1.755	1.431	1.224	0.9914	0.7168	0.5615	0.4508
313.15 K	2.066	1.79	1.437	1.176	1.003	0.8193	0.6111	0.488	0.3958

CCCN + CCCCCCCCO
viscosity [mPa·s], 101.33 kPa
Settings	x1 = 0.1005	x1 = 0.1898	x1 = 0.3064	x1 = 0.385	x1 = 0.4834	x1 = 0.5835	x1 = 0.6813	x1 = 0.7916	x1 = 0.8908
303.15 K	4.988	4.15	3.23	2.689	2.107	1.601	1.182	0.8056	0.5464
313.15 K	3.651	3.052	2.37	1.976	1.563	1.203	0.9234	0.6649	0.4703
